Test results reported in ChEMBL document CHEMBL1150173, “Antiviral saponins from Tieghemella heckelii” (J Nat Prod, 2002).
Active and inactive are the calls of the source. The calls are words filed in the database; no cut-off is given here.

Key:
[1] = tested on: Human immunodeficiency virus 1; test: Inhibition of HIV1 in wild type CHO cells mediated human HeLa-CD4+ cell fusion assessed as inhibition of syncytium formation at 20 uM by cell-cell fusion assay; assay type: functional
HeLa = test: Cytotoxicity against human HeLa cells expressing CD4+ construct at 20 uM after 3 days by MTT assay; assay type: cell-based; settings: 72 h

Row | Compound | Activity [1] | Activity (HeLa) | inhibition at 20 µM ([1]; Human immunodeficiency virus 1, CHO)
1 | CC1(C)CC[C@]2(C(=O)O)[C@H](O)C[C@]3(C)C(=CC[C@@H]4[C@@]5(C)C[C@H](O)[C@H](O[C@@H]6O[C@H](C(=O)O)[C@@H](O)[C@H](O)[C@H]6O)[C@@](C)(CO)[C@@H]5[C@H](O)C[C@]43C)[C@@H]2C1 | inactive |  | 
2 | CC1(C)CC[C@]2(C(=O)O)[C@H](O)C[C@]3(C)C(=CC[C@@H]4[C@@]5(C)C[C@H](O)[C@H](O[C@@H]6O[C@H](CO)[C@@H](O)[C@H](O)[C@H]6O)[C@@](C)(CO)[C@@H]5[C@H](O)C[C@]43C)[C@@H]2C1 | inactive |  | 
3 | C[C@@H]1O[C@@H](O[C@@H]2[C@@H](O)[C@H](O[C@@H]3[C@@H](O)[C@@H](O)[C@H](O[C@H]4[C@H](OC(=O)[C@]56CCC(C)(C)C[C@H]5C5=CC[C@@H]7[C@@]8(C)C[C@H](O)[C@H](O[C@@H]9O[C@H](C(=O)O)[C@@H](O)[C@H](O)[C@H]9O)[C@@](C)(CO)[C@@H]8[C@H](O)C[C@@]7(C)[C@]5(C)C[C@H]6O)OC[C@H](O)[C@@H]4O)O[C@H]3C)OC[C@H]2O)[C@H](O)[C@H](O)[C@H]1O [TIEGHEMELIN] |  | Non-toxic | 
4 | C[C@@H]1O[C@@H](O[C@@H]2[C@@H](O)[C@H](O[C@@H]3[C@@H](O)[C@@H](O)[C@H](O[C@H]4[C@H](OC(=O)[C@]56CCC(C)(C)C[C@H]5C5=CC[C@@H]7[C@@]8(C)C[C@H](O)[C@H](O[C@@H]9O[C@H](CO)[C@@H](O)[C@H](O)[C@H]9O)[C@@](C)(CO)[C@@H]8[C@H](O)C[C@@]7(C)[C@]5(C)C[C@H]6O)OC[C@H](O)[C@@H]4O)O[C@H]3C)OC[C@H]2O)[C@H](O)[C@H](O)[C@H]1O [ARGANINE C] |  | Non-toxic | 100%
